Source: the NIST ThermoML archive (doi:10.1021/acs.jced.8b01039)

Columns and labels:
[1] = xn = mol fraction of the nth substance listed; conditions: Vibrating wire viscometry
[2] = Vibrating wire viscometry

CC(F)(F)F [1,1,1-trifluoroethane] + C=C(F)C(F)(F)F
[1], x1 = 0.5
Conditions | viscosity [mPa·s]
252.1 K, 2010 kPa, Liquid | 0.2421
252.1 K, 2520 kPa, Liquid | 0.2439
252.1 K, 3030 kPa, Liquid | 0.2451
273.2 K, 910 kPa, Liquid | 0.1824
273.2 K, 2010 kPa, Liquid | 0.1859
273.2 K, 2500 kPa, Liquid | 0.187
273.2 K, 3000 kPa, Liquid | 0.1888
294.4 K, 1250 kPa, Liquid | 0.1424
294.4 K, 2010 kPa, Liquid | 0.1453
294.4 K, 2510 kPa, Liquid | 0.1469
294.4 K, 3020 kPa, Liquid | 0.1482
323.2 K, 970 kPa, Gas | 0.0124
343.2 K, 1060 kPa, Gas | 0.0133
343.2 K, 1840 kPa, Gas | 0.014
363.2 K, 2040 kPa, Gas | 0.0149
363.2 K, 2750 kPa, Gas | 0.016
383.2 K, 3070 kPa, Gas | 0.0168

FC(F)C(F)(F)F [pentafluoroethane]
[2]
Conditions | viscosity [mPa·s]
273.2 K, 1440 kPa, Liquid | 0.2154
273.2 K, 3260 kPa, Liquid | 0.22
273.2 K, 4880 kPa, Liquid | 0.224
273.2 K, 6650 kPa, Liquid | 0.2283
273.2 K, 8370 kPa, Liquid | 0.2323
273.2 K, 10120 kPa, Liquid | 0.2364
273.2 K, 11770 kPa, Liquid | 0.2403
273.2 K, 13330 kPa, Liquid | 0.2438
293.3 K, 1680 kPa, Liquid | 0.1739
293.3 K, 4160 kPa, Liquid | 0.1801
293.3 K, 6420 kPa, Liquid | 0.1854
293.3 K, 8490 kPa, Liquid | 0.1902
293.3 K, 10920 kPa, Liquid | 0.1952
293.3 K, 13210 kPa, Liquid | 0.2004
293.3 K, 15530 kPa, Liquid | 0.2052
293.3 K, 17700 kPa, Liquid | 0.2097
313.2 K, 1960 kPa, Liquid | 0.14
313.2 K, 3810 kPa, Liquid | 0.1447
313.2 K, 5550 kPa, Liquid | 0.1487
313.2 K, 7210 kPa, Liquid | 0.1525
313.2 K, 9450 kPa, Liquid | 0.1576
313.2 K, 11270 kPa, Liquid | 0.1616
313.2 K, 13140 kPa, Liquid | 0.1653
333.2 K, 630 kPa, Gas | 0.0116
333.2 K, 810 kPa, Gas | 0.0116
333.2 K, 1010 kPa, Gas | 0.0117
333.2 K, 1300 kPa, Gas | 0.0117

FC(F)C(F)(F)F [pentafluoroethane] + CC(F)F
[1], x1 = 0.5
Conditions | viscosity [mPa·s]
252.1 K, 1020 kPa, Liquid | 0.2923
252.1 K, 2000 kPa, Liquid | 0.2944
252.1 K, 2500 kPa, Liquid | 0.2966
252.1 K, 3000 kPa, Liquid | 0.299
252.1 K, 4000 kPa, Liquid | 0.3024
263.1 K, 1510 kPa, Liquid | 0.2558
263.1 K, 2010 kPa, Liquid | 0.2574
263.1 K, 2510 kPa, Liquid | 0.2593
263.1 K, 3020 kPa, Liquid | 0.2612
263.1 K, 4010 kPa, Liquid | 0.2643
274.5 K, 1510 kPa, Liquid | 0.2181
274.5 K, 2000 kPa, Liquid | 0.2198
274.5 K, 2510 kPa, Liquid | 0.222
274.5 K, 3020 kPa, Liquid | 0.2233
274.5 K, 4010 kPa, Liquid | 0.2261
294.3 K, 1200 kPa, Liquid | 0.1676
294.3 K, 1500 kPa, Liquid | 0.1688
294.3 K, 2000 kPa, Liquid | 0.1704
294.3 K, 3000 kPa, Liquid | 0.1737
294.3 K, 4000 kPa, Liquid | 0.1777
323.2 K, 990 kPa, Gas | 0.0124
343.2 K, 1090 kPa, Gas | 0.0132
343.2 K, 1800 kPa, Gas | 0.014
363.2 K, 2010 kPa, Gas | 0.0147
363.2 K, 2780 kPa, Gas | 0.0157
383.2 K, 3130 kPa, Gas | 0.0165

F/C=C/C(F)(F)F [trans-1,3,3,3-tetrafluoropropene] + C=C(F)C(F)(F)F
[1], x1 = 0.5
Conditions | viscosity [mPa·s]
252.3 K, 1000 kPa, Liquid | 0.2935
252.3 K, 2010 kPa, Liquid | 0.2969
252.3 K, 3020 kPa, Liquid | 0.3004
273.2 K, 1000 kPa, Liquid | 0.2271
273.2 K, 1960 kPa, Liquid | 0.2316
273.2 K, 2980 kPa, Liquid | 0.2352
294.2 K, 1010 kPa, Liquid | 0.179
294.2 K, 1980 kPa, Liquid | 0.1824
294.2 K, 3000 kPa, Liquid | 0.1858
348.2 K, 950 kPa, Gas | 0.0132
368.2 K, 1050 kPa, Gas | 0.0139
368.2 K, 1710 kPa, Gas | 0.0148
388.2 K, 1910 kPa, Gas | 0.0156
388.2 K, 2700 kPa, Gas | 0.0168
403.2 K, 3020 kPa, Gas | 0.0175

F/C=C/C(F)(F)F [trans-1,3,3,3-tetrafluoropropene] + CC(F)(F)F
[1], x2 = 0.5
Conditions | viscosity [mPa·s]
252.3 K, 1030 kPa, Liquid | 0.2653
252.3 K, 2020 kPa, Liquid | 0.2688
252.3 K, 3090 kPa, Liquid | 0.2721
273.2 K, 1070 kPa, Liquid | 0.2044
273.2 K, 2060 kPa, Liquid | 0.208
273.2 K, 3130 kPa, Liquid | 0.2113
293.2 K, 1130 kPa, Liquid | 0.1573
293.2 K, 2080 kPa, Liquid | 0.1612
293.2 K, 3090 kPa, Liquid | 0.1652
323.2 K, 970 kPa, Gas | 0.0123
346.2 K, 1080 kPa, Gas | 0.0131
346.2 K, 1910 kPa, Gas | 0.0137
363.2 K, 2120 kPa, Gas | 0.0146
363.2 K, 2720 kPa, Gas | 0.0155
383.2 K, 3040 kPa, Gas | 0.0162

F/C=C/C(F)(F)F [trans-1,3,3,3-tetrafluoropropene] + FC(F)C(F)(F)F
[1], x2 = 0.4933
Conditions | viscosity [mPa·s]
252.3 K, 2010 kPa, Liquid | 0.3181
252.3 K, 3020 kPa, Liquid | 0.3224
273.2 K, 1290 kPa, Liquid | 0.2388
273.2 K, 1990 kPa, Liquid | 0.2407
273.2 K, 3010 kPa, Liquid | 0.2451
294.2 K, 1240 kPa, Liquid | 0.1821
294.2 K, 2000 kPa, Liquid | 0.1861
294.2 K, 3010 kPa, Liquid | 0.1906
323.2 K, 960 kPa, Gas | 0.0133
343.2 K, 1060 kPa, Gas | 0.0143
343.2 K, 1770 kPa, Gas | 0.0149
363.2 K, 1960 kPa, Gas | 0.016
363.2 K, 2770 kPa, Gas | 0.0173
383.2 K, 3110 kPa, Gas | 0.0182
